Experimental data: US9999222B2, “Herbicidal combination comprising azines” (BASF SE, priority 2014, dated 2018)
Like-named read-outs stand apart in the source and are kept apart here.

Assays:
Test in all cases: Greenhouse test, pre-emergence treatment
ABUTH = format: in vivo, Abutilon theophrasti; conditions: Abutilon theophrasti, 480 h
Text: (§1) The culture containers used were plastic flowerpots containing loamy sand with approximately 3.0% of humus as the substrate. The seeds of the test plants were sown separately for each species.
(§2) For the pre-emergence treatment, the active ingredients, which had been suspended or emulsified in water, were applied directly after sowing by means of finely distributing nozzles. The containers were irrigated gently to promote germination and growth and subsequently covered with transparent plastic hoods until the plants had rooted. This cover caused uniform germination of the test plants, unless this had been impaired by the active ingredients.
(§3) Depending on the species, the plants were kept at 10-25° C. or 20-35° C., respectively.
(§4) The test period extended over 2 to 4 weeks. During this time, the plants were tended, and their response to the individual treatments was evaluated.
(§5) Evaluation was carried out using a scale from 0 to 100. 100 means no emergence of the plants, or complete destruction of at least the aerial moieties, and 0 means no damage, or normal course of growth. A moderate herbicidal activity is given at values of at least 60, a good herbicidal activity is given at values of at least 70, and a very good herbicidal activity is given at values of at least 85.
(§6) The respective stated components a and b, and if appropriate, c were formulated as a 10% by weight strength emulsion concentrate and, with addition of the amount of solvent system, introduced into the spray liquor used for applying the active compound.
(§7) In the examples, the solvent used was water.
(§8) In the examples below, using the method of S. R. Colby (1967) “Calculating synergistic and antagonistic responses of herbicide combinations”, Weeds 15, p. 22ff., the value E, which is expected if the activity of the individual active compounds is only additive, was calculated. E=X+Y−(X·Y/100) where • X=percent activity using active compound a at an application rate A; • Y=percent activity using active compound b at an application rate B; • E=expected activity (in %) by a+b at application rates A+B.
(§9) If the value found experimentally is higher than the value E calculated according to Colby, a synergistic effect is present.

POLCO = format: in vivo, Polygonum convolvulus; conditions: Fallopia convolvulus, pre-emergence, 480 h
Text: as §1, §2, §3, §4, §5, §6, §7, §8, §9

ANTAR = format: in vivo; conditions: Anthemis arvensis, 480 h, 20 DAT, read-out: observed % activity
Text: as §1, §2, §3, §4, §5, §6, §7, §8, §9

COMBE = format: in vivo, Commelina benghalensis; conditions: Commelina benghalensis, pre-emergence, 480 h
Text: as §1, §2, §3, §4, §5, §6, §7, §8, §9

EPHHL = format: in vivo, Euphorbia heterophylla; conditions: Euphorbia heterophylla, pre-emergence, 480 h
Text: as §1, §2, §3, §4, §5, §6, §7, §8, §9

GALAP = format: in vivo, Galium aparine; conditions: Galium aparine, pre-emergence, 480 h
Text: as §1, §2, §3, §4, §5, §6, §7, §8, §9

GERPU = format: in vivo, Geranium pusillum; conditions: Geranium pusillum, pre-emergence, 480 h
Text: as §1, §2, §3, §4, §5, §6, §7, §8, §9

KCHSC = format: in vivo, Kochia scoparia; conditions: Bassia scoparia, pre-emergence, 480 h
Text: as §1, §2, §3, §4, §5, §6, §7, §8, §9

IPOHE = format: in vivo, Ipomoea hederacea; conditions: Ipomoea hederacea, 480 h
Text: as §1, §2, §3, §4, §5, §6, §7, §8, §9

SIDRH = format: in vivo, Sida rhombifolia; conditions: Sida rhombifolia, pre-emergence, 480 h, 20 DAT, read-out: observed % activity
Text: as §1, §2, §3, §4, §5, §6, §7, §8, §9

CENCY = format: in vivo; conditions: 480 h, individual, read-out: observed % activity 20 DAT
[1] = 25 g ai/ha, 20 DAT, read-out: observed % activity
[2] = 50 g ai/ha, 20 DAT, read-out: observed % activity
[3] = 250 g ai/ha, 20 DAT, read-out: observed % activity
[4] = 500 g ai/ha, 20 DAT, read-out: observed % activity

Work on `CS(=O)(=O)c1cc(C(F)(F)F)ccc1C(=O)c1cnoc1C1CC1` [isoxaflutole] yielded an inhibition at 25 g/ha (ABUTH; [1]) of 98%, an inhibition at 50 g/ha (ABUTH; ABUTH, individual, use rate 50 g ai/ha, read-out: observed % activity 20 DAT) of 95% and an inhibition at 25 g/ha (POLCO; [1]) of 0%. For the same molecule, the inhibition at 50 g/ha (POLCO; [2]) was 30%, the inhibition at 25 g/ha (POLCO; POLCO, individual, use rate 25 g ai/ha, read-out: observed % activity 20 DAT) was 0% and the inhibition at 50 g/ha (POLCO; POLCO, individual, use rate 50 g ai/ha, read-out: observed % activity 20 DAT) was 0%. For the same molecule, the inhibition at 25 g/ha (ANTAR; 25 g ai/ha) was 95%, the inhibition at 50 g/ha (ANTAR; 50 g ai/ha) was 98% and the inhibition at 25 g/ha (COMBE; [1]) was 85%. It also gave an inhibition at 50 g/ha (COMBE; [2]) of 80%, an inhibition at 50 g/ha (COMBE; COMBE, individual, use rate 50 g ai/ha, read-out: observed % activity 20 DAT) of 45% and an inhibition at 25 g/ha (EPHHL; [1]) of 85%. The inhibition at 50 g/ha (EPHHL; [2]) was 85%, the inhibition at 25 g/ha (EPHHL; EPHHL, individual, use rate 25 g ai/ha, read-out: observed % activity 20 DAT) was 65% and the inhibition at 50 g/ha (EPHHL; EPHHL, individual, use rate 50 g ai/ha, read-out: observed % activity 20 DAT) was 70%. For the same molecule, the inhibition at 25 g/ha (GALAP; [1]) was 40%, the inhibition at 25 g/ha (GALAP; GALAP, individual, use rate 25 g ai/ha, read-out: observed % activity 20 DAT) was 40% and the inhibition at 50 g/ha (GALAP; GALAP, individual, use rate 50 g ai/ha, read-out: observed % activity 20 DAT) was 70%. It also gave an inhibition at 25 g/ha (GERPU; [1]) of 0%, an inhibition at 50 g/ha (GERPU; [2]) of 45% and an inhibition at 25 g/ha (GERPU; GERPU, individual, use rate 25 g ai/ha, read-out: observed % activity 20 DAT) of 70%. It also gave an inhibition at 50 g/ha (GERPU; GERPU, individual, use rate 50 g ai/ha, read-out: observed % activity 20 DAT) of 50%, an inhibition at 25 g/ha (KCHSC; [1]) of 98% and an inhibition at 50 g/ha (KCHSC; [2]) of 98%. For the same molecule, the inhibition at 25 g/ha (KCHSC; KCHSC, individual, use rate 25 g ai/ha, read-out: observed % activity 20 DAT) was 98%, the inhibition at 50 g/ha (KCHSC; KCHSC, individual, use rate 50 g ai/ha, read-out: observed % activity 20 DAT) was 98% and the inhibition at 50 g/ha (IPOHE; IPOHE, individual, use rate 50 g ai/ha, read-out: observed % activity 20 DAT) was 35%. It also gave an inhibition at 25 g/ha (SIDRH; 25 g ai/ha) of 90%, an inhibition at 50 g/ha (SIDRH; 50 g ai/ha) of 98% and an inhibition at 25 g/ha (CENCY; use rate 25 g ai/ha) of 20%. It also gave an inhibition at 50 g/ha (CENCY; use rate 50 g ai/ha) of 60%.

For `Cc1ccc(NC(=O)N(C)C)cc1Cl` [chlorotoluron], the inhibition at 250 g/ha (ABUTH; [3]) was 0%, the inhibition at 500 g/ha (ABUTH; [4]) was 0% and the inhibition at 125 g/ha (ABUTH; ABUTH, individual, use rate 125 g ai/ha, read-out: observed % activity 20 DAT) was 0%. The inhibition at 250 g/ha (ABUTH; ABUTH, individual, use rate 250 g ai/ha, read-out: observed % activity 20 DAT) was 0%, the inhibition at 250 g/ha (POLCO; [3]) was 0% and the inhibition at 500 g/ha (POLCO; [4]) was 20%. For the same molecule, the inhibition at 250 g/ha (POLCO; POLCO, individual, use rate 250 g ai/ha, read-out: observed % activity 20 DAT) was 0%, the inhibition at 250 g/ha (ANTAR; 250 g ai/ha) was 45% and the inhibition at 500 g/ha (ANTAR; 500 g ai/ha) was 45%. The inhibition at 250 g/ha (COMBE; [3]) was 20%, the inhibition at 125 g/ha (COMBE; COMBE, individual, use rate 125 g ai/ha, read-out: observed % activity 20 DAT) was 0% and the inhibition at 250 g/ha (COMBE; COMBE, individual, use rate 250 g ai/ha, read-out: observed % activity 20 DAT) was 0%. The inhibition at 250 g/ha (EPHHL; [3]) was 0%, the inhibition at 250 g/ha (EPHHL; EPHHL, individual, use rate 250 g ai/ha, read-out: observed % activity 20 DAT) was 15% and the inhibition at 500 g/ha (GALAP; [4]) was 50%. For the same molecule, the inhibition at 125 g/ha (GALAP; GALAP, individual, use rate 125 g ai/ha, read-out: observed % activity 20 DAT) was 25%, the inhibition at 250 g/ha (GALAP; GALAP, individual, use rate 250 g ai/ha, read-out: observed % activity 20 DAT) was 30% and the inhibition at 250 g/ha (GERPU; [3]) was 25%. It also gave an inhibition at 500 g/ha (GERPU; [4]) of 20%, an inhibition at 125 g/ha (GERPU; GERPU, individual, use rate 125 g ai/ha, read-out: observed % activity 20 DAT) of 25% and an inhibition at 250 g/ha (GERPU; GERPU, individual, use rate 250 g ai/ha, read-out: observed % activity 20 DAT) of 25%. It also gave an inhibition at 250 g/ha (KCHSC; [3]) of 20%, an inhibition at 500 g/ha (KCHSC; [4]) of 50% and an inhibition at 125 g/ha (KCHSC; KCHSC, individual, use rate 125 g ai/ha, read-out: observed % activity 20 DAT) of 15%. For the same molecule, the inhibition at 500 g/ha (IPOHE; [4]) was 0%, the inhibition at 250 g/ha (IPOHE; IPOHE, individual, use rate 250 g ai/ha, read-out: observed % activity 20 DAT) was 0% and the inhibition at 250 g/ha (SIDRH; 250 g ai/ha) was 0%. The inhibition at 500 g/ha (SIDRH; 500 g ai/ha) was 0%, the inhibition at 125 g/ha (CENCY; use rate 125 g ai/ha) was 20% and the inhibition at 250 g/ha (CENCY; use rate 250 g ai/ha) was 0%.
